Results as given in patent US20040097594A1 (priority 1998, published 2004).
Read-outs that look alike come from different tables or passages of the source.

Columns and labels:
HIV-1 protease = HIV-1 protease (Human immunodeficiency virus type 1 group M subtype B, UniProt P04585); assay: biochemical
HIV-1 (strain IIIB) = assay: microbe, parasite or virus in culture; type: cell-based; details: lower line of each compound's entry, read-out: IC50 (MT-4 cells)
[1] = HIV-1 protease, upper line of each compound's entry, read-out: Ki (enzyme)
[2] = Human immunodeficiency virus 1, 120 h, MT4 cells infected with HIV-1 strain IIIB, 5 days
[3] = Human immunodeficiency virus 1, IIIB, MT4, 120 h, […]

| SMILES | Ki (HIV-1 protease; [1]) | IC50 (HIV-1 (strain IIIB); [2]) | IC50 (HIV-1 (strain IIIB); [3]) | Ki (HIV-1 protease) |
| --- | --- | --- | --- | --- |
| O=C(N[C@@H](Cc1ccccc1)[C@H](O)CN(OC1CCCC1)S(=O)(=O)c1ccc2[nH]ncc2c1)OC1CO[C@H]2OCC[C@@H]12 (stereo partly drawn) [Compound 57, (3aS,6aR)Hexahydrofuro[2,3-b]furan-3-yl N-(1S,2R)-1-benzyl-3-[(cyclopentyloxy)(1H-indazol-5-ylsulfonyl)amino]-2-hydroxypropylcarbamate] | < 1 nM | ≤ 100 nM | – | – |
| COc1ccc(S(=O)(=O)N(C[C@@H](O)[C@H](Cc2ccccc2)NC(=O)OC2CO[C@H]3OCC[C@@H]23)OC2CCOCC2)cc1 (stereo partly drawn) [Compound 73, (3R,3aS,6aR)hexahydrofuro[2,3-b]furan-3-yl N-(1S,2R)-1-benzyl-2-hydroxy-3-[[(4-methoxyphenyl)sulfonyl](tetrahydro-2H -pyran-4-yloxy)amino]propylcarbamate] | < 1 nM | ≤ 100 nM | – | – |
| CC(C)ON(C[C@@H](O)[C@H](Cc1ccccc1)NC(=O)O[C@H]1CCOC1)S(=O)(=O)c1ccc2[nH]c(=O)[nH]c2c1 [Compound 62, (3S)tetrahydro-3-furanyl N-((1S,2R)-1-benzyl-2-hydroxy-3-isopropoxy[(2-oxo-2,3-dihydro-1H-1,3-benzimidazol-5-yl)sulfonyl]aminopropyl)carbamate] | 1 to 10 nM | > 1000 nM | – | – |
| CCC(C)ON(C[C@@H](O)[C@H](Cc1ccccc1)NC(=O)c1cccc(O)c1C)S(=O)(=O)c1ccc(OC)cc1 (some centres unmarked) [Compound 70] | < 1 nM | > 500 nM | – | – |
| CCC(C)ON(C[C@@H](O)[C@H](Cc1ccccc1)NC(=O)OC1CO[C@H]2OCC[C@@H]12)S(=O)(=O)c1ccc(OC)cc1 (stereo partly drawn) [Compound 68, (3R,3aS,6aR)hexahydrofuro[2,3-b]furan-3-yl N-((1S,2R)-1-benzyl-3-sec-butoxy[(4-methoxyphenyl)sulfonyl]amino-2-hydroxypropyl)carbamate] | < 1 nM | ≤ 100 nM | – | – |
| COc1ccc(S(=O)(=O)N(C[C@@H](O)[C@H](Cc2ccccc2)NC(=O)[C@H](CC(N)=O)NC(=O)c2ccc3ccccc3n2)OC2CCOCC2)cc1 [Compound 76, (2S)-N-(1S,2R)-1-benzyl-2-hydroxy-3-[[(4-methoxyphenyl)sulfonyl](tetrahydro-2H-pyran-4-yloxy)amino]propyl-2-[(2-quinolinylcarbonyl)amino]butanediamide] | < 1 nM | – | 100 to 500 nM | – |
| CC(C)ON(C[C@@H](O)[C@H](Cc1ccccc1)NC(=O)OC(C)(C)C)S(=O)(=O)c1ccc2[nH]c(NS(C)(=O)=O)nc2c1 [Compound 5] | 1 to 10 nM | 500 to 1000 nM | – | – |
| COc1ccc(S(=O)(=O)N(C[C@@H](O)[C@H](Cc2ccccc2)NC(=O)OC(C)(C)C)OCC2CCCCC2)cc1 [Compound 16, tert-butyl N-((1S,2R)-1-benzyl-3-(cyclohexylmethoxy)[(4-methoxyphenyl)sulfonyl]amino-2-hydroxypropyl)carbamate] | 10 to 100 nM | > 1000 nM | – | – |
| COc1ccc(S(=O)(=O)N(C[C@@H](O)[C@H](Cc2ccccc2)NC(=O)[C@H](CC(N)=O)NC(=O)c2ccc3ccccc3n2)OC2CCCC2)cc1 [Compound 50] | < 1 nM | ≤ 100 nM | – | – |
| CCC(CC)ON(C[C@@H](O)[C@H](Cc1ccccc1)NC(=O)OC(C)(C)C)S(=O)(=O)c1ccc(OC)cc1 [Example 161, tert-butyl(1S,2R)-1-benzyl-3-{(1-ethylpropoxy)[(4-methoxyphenyl)sulfonyl]amino}-2-hydroxypropylcarbamate] | 1 to 10 nM | > 1000 nM | – | – |
| COc1ccc(S(=O)(=O)N(C[C@@H](O)[C@H](Cc2ccccc2)NC(=O)OC(C)(C)C)OCc2ccccc2)cc1 [Compound 21, tert-butyl N-((1S,2R)-1-benzyl-3-(benzyloxy)[(4-methoxyphenyl)sulfonyl]amino-2-hydroxypropyl)carbamate] | 10 to 100 nM | > 1000 nM | – | – |
| O=C(O)CNc1cccc(S(=O)(=O)N(CC(O)C(Cc2ccccc2)NC(=O)OC2COC3OCCC23)OC2CCCC2)c1 [Compound 35, 2-2-(3-[[(2R,3S)-3-([(3R,3aS,6aR)hexahydrofuro[2,3-b]furan-3-yloxy]carbonylamino)-hydroxy-4-phenylbutyl](cyclopentyloxy)amino]sulfonylanilino)acetic acid and 2-2-(3-[[(2R,3S)-3-([(3S,3aR,6aS)hexahydrofuro[2,3-b]furan-3-yloxy]carbonylamino)-hydroxy-4-phenylbutyl](cyclopentyloxy)amino]sulfonylanilino)acetic acid] | < 1 nM | > 1000 nM | – | – |
| CCC(CC)ON(C[C@@H](O)[C@H](Cc1ccccc1)NC(=O)O[C@H]1CO[C@H]2OCC[C@H]21)S(=O)(=O)c1ccc(O)cc1 [Example 166, (3R,3aS,6aR)hexahydrofuro[2,3-b]furan-3-yl(1S,2R)-1-benzyl-3-{(1-ethylpropoxy)[(4-hydroxyphenyl)sulfonyl]amino}-2-hydroxypropylcarbamate] | < 1 nM | ≤ 100 nM | – | – |
| COc1ccc(S(=O)(=O)N(C[C@@H](O)[C@H](Cc2ccccc2)NC(=O)c2ccccc2C)OC2CCCC2)cc1 [Compound 26, N^1-((1S,2R)-1-benzyl-3-(cyclopentyloxy)[(4-methoxyphenyl)sulfonyl]amino-2-hydroxypropyl)-2-methylbenzamide] | 1 to 10 nM | > 1000 nM | – | – |
| CCC(C)ON(C[C@@H](O)[C@H](Cc1ccccc1)NC(=O)[C@H](CC(N)=O)NC(=O)c1ccc2ccccc2n1)S(=O)(=O)c1ccc(OC)cc1 (some centres unmarked) [Compound 71] | < 1 nM | – | ≤ 100 nM | – |
| COc1ccc(S(=O)(=O)N(C[C@@H](O)[C@H](Cc2ccccc2)NC(=O)OCc2ccccc2)OC2CCCC2)cc1 [Compound 24, Phenylmethyl N-((1S,2R)-1-benzyl-3-(cyclopentyloxy)[(4-methoxyphenyl)sulfonyl]amino-2-hydroxypropyl)carbamate] | < 1 nM | > 1000 nM | – | – |
| CN(C)C(=O)Nc1nc2cc(S(=O)(=O)N(C[C@@H](O)[C@H](Cc3ccccc3)NC(=O)OC(C)(C)C)OC3CCCC3)ccc2[nH]1 [Compound 14, Tert-butyl N-(1S,2R)-1-benzyl-3-[(cyclopentyloxy)(2-[(dimethylamino-carbonyl)amino]-1H-benzimidazol-5-ylsulfonyl)amino]-2-hydroxypropylcarbamate] | < 1 nM | 100 to 500 nM | – | – |
| COc1ccc(S(=O)(=O)N(C[C@@H](O)[C@H](Cc2ccccc2)NC(=O)OC(C)(C)C)OC2CCCC2)cc1 [Compound 7] | – | > 1000 nM | – | 1 to 10 nM |
| Nc1ccc(S(=O)(=O)N(C[C@@H](O)[C@H](Cc2ccccc2)NC(=O)O[C@H]2CO[C@H]3OCC[C@H]32)OC2CCOCC2)cc1 [Compound 146, (3R,3aS,6aR)hexahydrofuro[2,3-b]furan-3-yl 3-[[(4-aminophenyl)sulfonyl](tetrahydro-2H-pyran-4-yloxy)amino]-1-benzyl-2-hydroxypropylcarbamate] | < 1 nM | ≤ 100 nM | – | – |
| CCC(CC)ON(C[C@@H](O)[C@H](Cc1ccccc1)NC(=O)O[C@H]1CO[C@H]2OCC[C@H]21)S(=O)(=O)c1cccc(N)c1 [Example 164, (3R,3aS,6aR)hexahydrofuro[2,3-b]furan-3-yl(1S,2R)-3-[[(3-aminophenyl)sulfonyl](1-ethylpropoxy)amino]-1-benzyl-2-hydroxypropylcarbamate] | < 1 nM | ≤ 100 nM | – | – |
| CCC(C)ON(C[C@@H](O)[C@H](Cc1ccccc1)NC(=O)OC1COCOC1)S(=O)(=O)c1ccc(OC)cc1 (stereo partly drawn) [Compound 69, 1,3-dioxan-5-yl N-((1S,2R)-1-benzyl-3-sec-butoxy[(4-methoxyphenyl)sulfonyl]amino-2-hydroxypropyl)carbamate] | < 1 nM | 100 to 500 nM | – | – |
| O=C(N[C@@H](Cc1ccccc1)[C@@H](CN(OC1CCCC1)S(=O)(=O)c1ccc2c(c1)OCO2)OP(=O)(O)O)O[C@H]1CO[C@H]2OCC[C@H]21 [Compound 143, (3R,3aS,6aR)hexahydrofuro[2,3-b]furan-3-yl N-[(1S,2R)-3-[(1,3-benzodioxol-5-ylsulfonyl)(cyclopentyloxy)amino]-1-benzyl-2-(phosphonooxy)propyl]carbamate] | < 1 nM | ≤ 100 nM | – | – |
| CCN(C)C(=O)CNc1cccc(S(=O)(=O)N(CC(O)C(Cc2ccccc2)NC(=O)OC2COC3OCCC23)OC2CCCC2)c1 (mixture of isomers) [Example 170, (3R,3aS,6aR)hexahydrofuro[2,3-b]furan-3-yl N-[(1S,2R)-1-benzyl-3-((cyclopentyloxy)[3-(2-[ethyl(methyl)amino]-2-oxoethylamino)phenyl]sulfonylamino)-2-hydroxypropyl)carbamate and (3S,3aR,6aS)hexahydrofuro[2,3-b]furan-3-yl N-[(1S,2R)-1-benzyl-3-((cyclopentyloxy)[3-(2-[ethyl(methyl)amino]-2-oxoethylamino)phenyl]sulfonylamino)-2-hydroxypropyl]carbamate] | < 1 nM | ≤ 100 nM | – | – |
| COc1ccc(S(=O)(=O)N(C[C@@H](O)[C@H](Cc2ccccc2)NC(=O)OC(C)(C)C)OCC(C)C)cc1 [Compound 22, tert-butyl N-((1S,2R)-1-benzyl-2-hydroxy-3-isobutoxy[(4-methoxyphenyl)sulfonyl]aminopropyl)carbamate] | – | > 1000 nM | – | 1 to 10 nM |
| O=C(N[C@@H](Cc1ccccc1)[C@H](O)CN(OC1CCCC1)S(=O)(=O)c1ccc2cn[nH]c2c1)O[C@H]1CCOC1 [Compound 58, (3S)Tetrahydro-3-furanyl N-(1S,2R)-1-benzyl-3-[(cyclopentyloxy)(1H-indazol-6-ylsulfonyl)amino]-2-hydroxypropylcarbamate] | < 1 nM | 100 to 500 nM | – | – |
